These results are taken from article PMC12473123, “Structure–Function Insights into Quinuclidine-3-One BisQACs: Synthesis, Modulation of Bacterial Resistance, Structure–Activity Relationship, and Biological Profiling” (Pharmaceuticals, 2025).

What all share (format): cell-based
Data set [1] deals with Enterococcus faecalis ATCC 29212. The data set can be described thus: Broth microdilution MIC. To be noted: Enterococcus faecalis, ATCC29212, read-out: Minimum Inhibitory Concentrations (MIC), Enterococcus faecalis ATCC 29212. On the technique in general: Dilution methods test growth across graded concentrations, often in twofold steps.
Data set [2] has as its system Staphylococcus aureus ATCC 25923. The data set can be described thus: Time-kill kinetics assay. How it is done: To assess the temporal dynamics of bacterial viability upon exposure to the test compounds, a time-kill kinetics assay was performed using the Gram-positive reference strain Staphylococcus aureus ATCC 25923. An overnight culture of the strain was subcultured into fresh, pre-warmed Mueller–Hinton broth (MHB) and incubated under aerobic conditions at 37 °C with agitation (220 rpm) until reaching the early exponential growth phase. The bacterial suspension was then standardized to an initial concentration of approximately 5 × 10^5 CFU/mL. […] Wells containing untreated bacterial cultures served as growth controls. Immediately after mixing, a 10 µL sample from each well was withdrawn, diluted in 990 µL of MHB, and serially diluted tenfold up to 10^−6. From each dilution, 20 µL was plated on MHB agar using a sterile loop to determine the initial bacterial count (time zero). The treated plates were incubated at 37 °C, and additional samples were collected at predetermined time points (2, 4, 6, 8, 12, and 24 h) following the same dilution and plating protocol. After 24 h of incubation at 37 °C, colonies were counted, and viable bacterial counts were expressed as log10 CFU/mL for each time point. Bactericidal activity was evaluated by plotting the log10 CFU/mL over time, providing a dynamic profile of the compound’s killing kinetics.

Data set [3] deals with Bacillus cereus ATCC 14579. The data set can be described thus: Broth microdilution MIC. To be noted: ATCC14579, read-out: Minimum Inhibitory Concentrations (MIC), Bacillus cereus ATCC 14579.
Data set [4] has as its system Staphylococcus aureus ATCC 25923. The data set can be described thus: Flow cytometry cell viability (TO/PI staining). The note with it: at the onset of treatment, concentration not given. How it is done: To gain further insights into the effects of the test compounds on bacterial viability, Staphylococcus aureus ATCC 25923 was analyzed using flow cytometry (NovoCyte Advanteon, Agilent Technologies, Santa Clara, CA, USA). Two independent overnight cultures were diluted 1:10 in fresh Mueller–Hinton broth (MHB) and incubated at 37 °C with shaking at 220 rpm until reaching the early exponential growth phase. Cells were then harvested by centrifugation (4500× g, 10 min, room temperature). One cell pellet was resuspended in a staining buffer composed of phosphate buffer (pH 7.4) supplemented with 1 mM EDTA and 0.1% Tween 20. […] Both preparations were adjusted to a final density of 1 × 10^6 CFU/mL and served as controls for fluorescence compensation alongside an unstained bacterial population. Bacterial viability was assessed using the BD^TM Cell Viability Kit (BD Biosciences, San Jose, CA, USA), which employs thiazole orange (TO) and propidium iodide (PI) for dual fluorescence labeling. […] Flow cytometric analysis enabled the discrimination of live (TO+/PI−), damaged (TO+/PI+), and dead (TO−/PI+) bacterial populations based on their fluorescence profiles, allowing for a time-resolved evaluation of compound-induced cytotoxicity.
In general terms: In flow cytometry, cells or beads pass a laser one at a time.

The test system of data set [5] is panel of clinically relevant bacterial strains. The data set can be described thus: Broth microdilution MIC, summary over the panel. The note with it: Staphylococcus aureus (including MRSA), Listeria monocytogenes, Escherichia coli.

In the case of `CCCCCCCCCCCCCCCCNC1C[N+]2(CCC[N+]34CCC(CC3)C(NCCCCCCCCCCCCCCCC)C4)CCC1CC2` (racemic) [2(QC16)3, (±)-1,1′-(Propane-1,3-diyl) bis(3-(hexadecylamino)quinuclidinium) dibromide], the MIC in data set [1] and in data set [3] was over 75 µM in each case. For the same compound, the “time to rapid bactericidal activity” value in data set [2] (S. aureus ATCC 25923) is recorded as at most 3 h. For the same compound, the “time to complete killing” value in data set [2] (S. aureus ATCC 25923, 2 × MIC) is 2 h.
As for `CCCCCCCCCCCCCCCCNC1C[N+]2(CCCCCC[N+]34CCC(CC3)C(NCCCCCCCCCCCCCCCC)C4)CCC1CC2` (racemic) [2(QC16)6, (±)-1,1′-(Hexane-1,6-diyl) bis(3-(hexadecylamino)quinuclidinium) dibromide], in data set [2] (S. aureus ATCC 25923), the “time to complete eradication / elimination of viable cells (CFU)” value was at most 2 h. In data set [4], the “cells with signs of membrane damage (TO+/PI+)” value is “over 80%” and the “fully viable cells (TO+/PI−)” value is listed as under 5%. The MIC in data set [5] lay in the range of 5 to 38 µM.
